Measured values published in patent publication US6437177B1, “α-hydroxy, -amino, and halo derivatives of β-sulfonyl hydroxamic acids as matrix metallopropteinases inhibitors” (priority 1997, dated 2002).
pKi: −log10 of the molar value.

Tested on: not given
Test: not given
Conditions: not given

Row | Compound | melting point
1 | COc1ccc(S(=O)(=O)CC(O)(CS(=O)(=O)c2ccc(OC)cc2)C(=O)NO)cc1 [Example 4] | 75 to 80 °C

Biological target: Stromelysin (Homo sapiens, UniProt P08254)
Test: MMP inhibition, particle concentration fluorescence assay (stromelysin)
Assay type: biochemical
Conditions: in vitro; fluorescein/biotin substrate; MMP buffer pH 7.5; room temperature
Procedure: Inhibitory activity is evaluated in one or more of the MMP enzymes (stromelysin, gelatinase, and collagenase) in vitro using particle concentration fluorescence assay. An inhibitor binds to MMP enzymes which prevents the degradation of a substrate by stromelysin, gelatinase, or coilagenase. The substrate has attached to it a fluorescein and a biotin moiety. The intact substrate then binds to an avidin-coated particle via the biotin moiety. Once the particle is washed and dried, a fluorescent signal is generated since the fluorescent group is attached to the particle. Without an inhibitor present, the substrate is degraded by MMP enzymes and the fluorescein group is removed, therefore, no fluorescent signal can be detected. Testing compounds are dissolved in DMSO to the desired concentration, then the solutions are diluted to 1:5 with MMP buffer (50 mM Tris-HCl, pH 7.5; 150 mM NaCl; 0.02% NaN3). Serial two-fold dilutions of each compound are prepared. A concentrated, activated enzyme solution is transferred into each plate of the testing compounds, and the mixture is incubated at room temperature for 15 minutes. Thawed MMP substrate is then added into all plates, and the plates are incubated in the dark for 1-3 hours at room temperature. At this point, the substrate mixture is mixed with 0.1% avidin-coated polystyrene particles. After 15 minutes, the fluorescence values are measured following filtration and washing of the beads. Ki values are then calculated.

Sequence of Stromelysin (P08254 100-477): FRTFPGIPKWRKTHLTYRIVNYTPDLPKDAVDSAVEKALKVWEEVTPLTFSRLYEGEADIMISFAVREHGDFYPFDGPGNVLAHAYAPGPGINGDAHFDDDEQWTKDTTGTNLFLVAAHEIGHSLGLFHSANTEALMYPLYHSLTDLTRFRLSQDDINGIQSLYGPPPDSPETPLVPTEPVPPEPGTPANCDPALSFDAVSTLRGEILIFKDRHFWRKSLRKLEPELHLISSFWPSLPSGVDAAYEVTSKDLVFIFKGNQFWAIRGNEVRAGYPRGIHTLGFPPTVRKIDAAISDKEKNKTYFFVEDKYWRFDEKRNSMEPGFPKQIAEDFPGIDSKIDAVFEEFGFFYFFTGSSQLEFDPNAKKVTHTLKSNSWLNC

Row | Compound | pKi
2 | COc1ccc(S(=O)(=O)CC(O)(CS(=O)(=O)c2ccc(OC)cc2)C(=O)NO)cc1 [Example 4] | 7.41
3 | COc1ccc(S(=O)(=O)CC(O)(CNC(=O)C2CCCC2)C(=O)NO)cc1 (stereo not shown) [Example 6, N-Hydroxy-2-hydroxy-2-[(4-methoxybenzenesulfonyl)methyl]-3-[N-(cyclopentylcarbonyl)amino]-propionamide] | 6.46
4 | COc1ccc(S(=O)(=O)CC(O)(CNC(=O)c2ccccc2)C(=O)NO)cc1 (stereo not shown) [Example 5] | 6.62
5 | CCCCc1ccc(S(=O)(=O)CC(O)(CS(=O)(=O)c2ccc(OC)cc2)C(=O)NO)cc1 (stereo not shown) [Example 3, N-Hydroxy-2-hydroxy-2-[(4-methoxybenzenesulfonyl)methyl]-3-(4-n-butylbenzenesulfonyl)-propionamide] | 7.34
6 | COc1ccc(C(=O)NCC(O)(CS(=O)(=O)c2ccc(OC)cc2)C(=O)NO)cc1 (stereo not shown) [Example 7, N-Hydroxy-2-hydroxy-2-[(4-methoxybenzenesulfonyl)methyl]-3-(N-(4-methoxybenzenecarbonyl)amino)-propionamide] | 6.55
7 | COc1ccc(S(=O)(=O)CC(O)(CS(=O)(=O)c2ccc(-c3ccccc3)cc2)C(=O)NO)cc1 (racemic) [Example 1, N-Hydroxy-2-hydroxy-2-[(4-methoxybenzenesulfonyl)methyl]-3-(4-phenylbenzenesulfonyl)-propionamide] | 7.13
8 | COc1ccc(S(=O)(=O)CC(O)(CS(=O)(=O)c2ccc(-c3ccccc3)cc2)C(=O)NO)cc1 (single isomer, unassigned) [Example 1, Enantiomer B, N-Hydroxy-2-hydroxy-2-[(4-methoxybenzenesulfonyl)methyl]-3-(4-phenylbenzenesulfonyl)-propionamide] | 7.10
9 | COc1ccc(S(=O)(=O)CC(O)(CS(=O)(=O)c2ccc(F)cc2)C(=O)NO)cc1 (stereo not shown) [Example 2, N-Hydroxy-2-hydroxy-2-[(4-methoxybenzenesulfonyl)methyl]-3-(4-fluorobenzenesulfonyl)-propionamide] | 6.74
10 | COc1ccc(S(=O)(=O)CC(O)(CS(=O)(=O)c2ccc(-c3ccccc3)cc2)C(=O)NO)cc1 (single isomer, unassigned) [Example 1, Enantiomer A, N-Hydroxy-2-hydroxy-2-[(4-methoxybenzenesulfonyl)methyl]-3-(4-phenylbenzenesulfonyl)-propionamide] | 7.68
